Laboratory results: patent US20240368209A1, “GEMCITABINE ANTICANCER DERIVATIVE AND ANTICANCER PHARMACEUTICAL USE” (ASCENTAWITS PHARMACEUTICALS, LTD., priority 2021, published 2024)

Legend:
Assay type in all cases: in vitro ADME
[1] = Metabolic stability in human liver microsomes
Experimental: (§1) Main solutions were prepared according to Table 9 below:
(§2) (II) Two Separate Experiments were Performed • a) With cofactor (NADPH): 25 μL of 10 mM NADPH was added to the culture broth. The final concentration of liver microsomes was 0.5 mg/mL, and the final concentration of NADPH was 1 mM. • b) Without cofactor (NADPH): 25 μL of 100 mM phosphate buffer was added. The final concentration of liver microsomes was 0.5 mg/mL. The mixture was preheated at 37° C. for 10 minutes. (III) 25 μL of […] control compound or test compound solution was added to start the reaction. […] The final concentrations of the test compound and control compound were both 1 μM. The culture broth was cultured in water at 37° C. (IV) Aliquots of 30 μL were collected from the reaction solution at 0.5, 5, 15, 30, and 60 minutes, respectively. 5 volumes of cold acetonitrile and IS (internal standard, containing 100 nM of alprazolam, 200 nM of caffeine, and 100 nM of tolylbutanamide) were added to stop the reaction. […] 100 μL of supernatant was taken and mixed with 100 μL of ultrapure water, equally divided and analyzed with LC-MS/MS.
(§3) All calculations were conducted using Microsoft Excel. The peak area was determined from the extracted ion chromatogram.
(§4) [formula] [formula] [formula] • wherein, QH is the hepatic blood flow (mL/min/kg) in Table 10, and fub is the fraction of drug unbound in plasma, and assumed as 1.

[2] = Metabolic stability in dog liver microsomes
Experimental: as §1, §2, §3, §4

[3] = Plasma stability in mouse plasma
Experimental: The final concentration of organic solvents was 0.5%. The test was conducted in duplicate. • C.
Samples were analyzed with LC-MS/MS. All calculations were conducted using Microsoft Excel.

## CC(C)NP(=O)(OCc1ccc([N+](=O)[O-])c(Oc2ccc(-c3ccc(F)cc3)c(F)c2)c1)OCC1OC(C2N=CC(N)=NC2=O)C(F)(F)C1O (stereo not drawn) [Compound H11]
[1]
  Hepatic Extraction Ratio (ER): 0.69
  Predicted Hepatic CLH: 14.41 mL/min/kg
  clearance and stability in liver microsomes (in words): medium clearances and certain stability
[1]; NADPH added, 0.5 minutes, 1 μM
  Remaining percentage (%): 100.00%
[1]; NADPH added, 5 minutes
  Remaining percentage (%): 86.00%
[1]; NADPH added, 15 minutes
  Remaining percentage (%): 63.82%
[1]; NADPH added, 30 minutes
  Remaining percentage (%): 43.87%
[1]; NADPH added, 60 minutes
  Remaining percentage (%): 26.14%
[1]; NADPH not added, 0.5 minutes
  Remaining percentage (%): 100.00%
[1]; NADPH not added, 60 minutes
  Remaining percentage (%): 100.86%
[1]; read-out: In vitro half-life t1/2
  half-life at 1 μM: 31 min
[1]; read-out: In vitro intrinsic clearance CLint
  microsomal CLint at 1 μM: 44.7 µL/min/mg
[1]; read-out: Scale-up CLint
  CLint scaled at 1 μM: 46 mL/min/kg
[2]
  Hepatic Extraction Ratio (ER): 0.68
  Predicted Hepatic CLH: 21.21 mL/min/kg
  clearance and stability in liver microsomes (in words): medium clearances and certain stability
[2]; NADPH added, 0.5 minutes, 1 μM
  Remaining percentage (%): 100.00%
[2]; NADPH added, 5 minutes
  Remaining percentage (%): 90.20%
[2]; NADPH added, 15 minutes
  Remaining percentage (%): 71.99%
[2]; NADPH added, 30 minutes
  Remaining percentage (%): 52.53%
[2]; NADPH added, 60 minutes
  Remaining percentage (%): 32.12%
[2]; NADPH not added, 0.5 minutes
  Remaining percentage (%): 100.00%
[2]; NADPH not added, 60 minutes
  Remaining percentage (%): 92.14%
[2]; dog, read-out: In vitro half-life t1/2
  half-life at 1 μM: 36.3 min
[2]; dog, read-out: In vitro intrinsic clearance CLint
  microsomal CLint at 1 μM: 38.2 µL/min/mg
[2]; read-out: Scale-up CLint
  CLint scaled at 1 μM: 67.2 mL/min/kg
[3]
  t1/2 (min): ∞
[3]; 0 min, 5 μM, 37° C.
  Remaining percentage (%): 100.00%
[3]; 37° C., at least 2 hours
  plasma stability (in words): stable and has no significant metabolism
[3]; 15 min
  Remaining percentage (%): 102.19%
[3]; 30 min
  Remaining percentage (%): 96.83%
[3]; 60 min
  Remaining percentage (%): 104.70%
[3]; 120 min
  Remaining percentage (%): 97.53%
